Measured values taken from patent publication US20140127827A1, “METHOD FOR DETECTION OF ANTIGEN USING FLUORESCENCE RESONANCE ENERGY TRANSFER IMMUNOASSAY” (priority 2012, published 2014).

Key:
Format in all cases: binding
anti-AFB1 Fab = test: FRET immunoassay using Fab fragment (anti-AFB1 Fab), incl. specificity to OTA
Protocol: Under the condition of 25 mM MEST buffer solution (pH 6.0), AFB1 of various concentrations (0, 0.1, 0.2, 0.5, 1, 2, 10, 20, 50 and 100 ng/mL) was reacted with anti-AFB1 Fab fragments having a constant concentration at room temperature for 20 minutes to obtain AFB1/anti-AFB1 Fab conjugates. The obtained AFB1/anti-AFB1 Fab conjugates were excited at 280 nm to obtain fluorescence spectra (FIG. 7). Referring to FIG. 7, it can be seen that, as the concentration of AFB1 increases, the fluorescence intensity at a wavelength of 350 nm decreases. Particularly, it can also be seen that sensitivity of FRET immunoassay using Fab fragments was much better than that of FRET immunoassay using an intact antibody of Example 1 (FIG. 8). Further, as a result of analysis by lowering the concentration of AFB1, it can be seen that approximately up to 0.09 ng/mL of AFB1 could be detected through FRET immunoassay using Fab fragments. This corresponds to a near 10-fold improvement in terms of sensitivity as compared to FRET immunoassay where an intact antibody of Example 1 was used. […]

anti-AFB1 antibody = settings: pH 6
anti-BaP = test: FRET immunoassay for benzopyrene using antibodies (BaP/anti-BaP conjugate), incl. specificity to pyrene and DBA; settings: same concentration as BaP (5 and 20 ng/mL), 10 mM NaHCO3 pH 9.0
Protocol: Under the condition of 10 mM NaHCO3 buffer solution (pH 9.0), BaPs having various concentrations (0, 0.1, 0.2, 0.5, 1, 2, 5, 10, 20 and 50 ng/mL) were reacted with antibodies having constant concentration at room temperature for 20 minutes to obtain BaP/anti-BaP conjugates. The obtained BaP/anti-BaP conjugates were excited at 280 nm to obtain a fluorescence spectrum (FIG. 18). Referring to FIGS. 18 and 19, it can be seen that, as the concentration of BaP increases, fluorescence intensity at a wavelength of 350 nm decreases, while fluorescence intensity at 435 nm increases at the same time.
Under the condition of 10 mM NaHCO3 buffer solution (pH 9.0), specificity of mouse IgG antibody (anti-Mouse IgG) to 5 ng/mL and 20 ng/mL BaP was investigated using FRET immunoassay. […] Further, specificity of anti-BaP to pyrene and dibenz[a,h]anthracene (DBA) having the same concentration as BaP was investigated.

anti-NPT = test: FRET immunoassay for neopterin using antibodies (NPT/anti-NPT conjugate), incl. specificity to BPT; settings: 10 mM NaHCO3 pH 9.0
Protocol: Under the condition of 10 mM NaHCO3 buffer solution (pH 9.0), NPT of various concentrations (0 ng/mL, 0.2 ng/mL, 2 ng/mL and 20 ng/mL) was reacted with antibodies having a constant concentration at room temperature for 20 minutes to obtain NPT/anti-NPT conjugates. The obtained NPT/anti-NPT conjugates were excited at 280 nm to obtain fluorescence spectra (FIG. 14). Referring to FIG. 14, it can be seen that, as the concentration of NPT increases, the fluorescence intensity at a wavelength of 350 nm decreases.
Under the condition of 10 mM NaHCO3 buffer solution (pH 9.0), specificity of mouse IgG antibody (anti-Mouse IgG), IFN-γ antibody (anti-IFN-γ) and CRP antibody (anti-CRP) to 2 ng/mL and 20 ng/mL of NPT was investigated using FRET immunoassay. […] Further, specificity of anti-NPT with BPT having the same concentration as NPT was investigated.

anti-OTA antibody = test: FRET immunoassay using an intact antibody (OTA/anti-OTA conjugate); settings: 0, 10, 100 ng/mL; 25 mM MEST pH 6.0; excitation 280 nm
Protocol: (§1) Using 25 mM MEST buffer solution (containing 0.3% Tween 20 in MES buffer solution, pH 6.0), mycotoxins of various concentrations (0 ng/mL, 10 ng/mL and 100 ng/mL) were reacted with antibodies having a constant concentration at room temperature for 20 minutes to obtain mycotoxin/antibody conjugates (AFB1/anti-AFB1 conjugate, OTA/anti-OTA conjugate, and ZEN/anti-ZEN conjugate). The obtained mycotoxin/antibody conjugates were excited at 280 nm to obtain fluorescence spectra (FIG. 4). Referring to FIG. 4, it can be seen that, as the concentration of mycotoxins (AFB1, OTA and ZEN) increases, the fluorescence intensity at a wavelength of 350 nm decreases.

anti-ZEN antibody = test: FRET immunoassay using an intact antibody (ZEN/anti-ZEN conjugate); settings: 0, 10, 100 ng/mL; 25 mM MEST pH 6.0; excitation 280 nm
Protocol: as §1

COc1cc2c(c3oc(=O)c4c(c13)CCC4=O)[C@@H]1C=CO[C@@H]1O2 [AFB1, aflatoxin]
fluorescence intensity at 350 nm as concentration increases (anti-AFB1 Fab; pH 6): decreases
fluorescence intensity at 350 nm as concentration increases (anti-AFB1 antibody): decreases

c1ccc2c(c1)ccc1cc3c(ccc4ccccc43)cc12 [DBA, dibenz[a,h]anthracene]
binding to anti-BaP (specificity) (anti-BaP): a little antigen/antibody binding

Nc1nc2ncc([C@H](O)[C@H](O)CO)nc2c(=O)[nH]1 [NPT, neopterin]
fluorescence intensity at 350 nm as concentration increases (anti-NPT; 0, 0.2, 2, 20 ng/mL NPT, excitation 280 nm): decreases

C[C@@H]1Cc2c(Cl)cc(C(=O)N[C@@H](Cc3ccccc3)C(=O)O)c(O)c2C(=O)O1 [OTA, ochratoxin A]
binding to anti-AFB1 Fab (specificity) (anti-AFB1 Fab; OTA at same concentration as AFB1 (10 and 50 ng/mL), MEST buffer pH 6.0): no antigen/antibody binding
fluorescence intensity at 350 nm as concentration increases (anti-OTA antibody): decreases

C[C@H]1CCCC(=O)CCC/C=C/c2cc(O)cc(O)c2C(=O)O1 [ZEN, zearalenone]
fluorescence intensity at 350 nm as concentration increases (anti-ZEN antibody): decreases

c1cc2ccc3cccc4ccc(c1)c2c34 [pyrene]
binding to anti-BaP (specificity) (anti-BaP): a little antigen/antibody binding

biopterin [BPT]
binding to anti-NPT (specificity) (anti-NPT; BPT at same concentration as NPT (2 and 20 ng/mL)): no antigen/antibody binding
